Laboratory results published in US20060252766A1, “Methods using a combination of 3-heteroaryl-2-indolinone and a cyclooxygenase-2 inhibitor for the treatment of neoplasia” (PFIZER INC, priority 2002, published 2006).
Several values for one entry are separate records, joined by “and”; a condition that tells them apart may be missing. Identical values can stand only once. Like-named read-outs stand apart in the source and are kept apart here. Each block holds one molecule with its values, some of them ahead of it.

Key:
[1] = system: PDGFR; experiment: PDGF-induced BrdU incorporation assay in 3T3/EGFR cells; type: cell-based; conditions: Mitogenesis in 3T3/EGFR cells, read-out: PDGFR PDGF Ligand IC50
[2] = target: FGFR (Mus musculus, UniProt P16092); experiment: FGF ligand BrdU incorporation in 3T3/EGFR cells; type: cell-based; conditions: Mitogenesis in 3T3/EGFR cells
Chain of FGFR (P16092 22-822, stated change not applied): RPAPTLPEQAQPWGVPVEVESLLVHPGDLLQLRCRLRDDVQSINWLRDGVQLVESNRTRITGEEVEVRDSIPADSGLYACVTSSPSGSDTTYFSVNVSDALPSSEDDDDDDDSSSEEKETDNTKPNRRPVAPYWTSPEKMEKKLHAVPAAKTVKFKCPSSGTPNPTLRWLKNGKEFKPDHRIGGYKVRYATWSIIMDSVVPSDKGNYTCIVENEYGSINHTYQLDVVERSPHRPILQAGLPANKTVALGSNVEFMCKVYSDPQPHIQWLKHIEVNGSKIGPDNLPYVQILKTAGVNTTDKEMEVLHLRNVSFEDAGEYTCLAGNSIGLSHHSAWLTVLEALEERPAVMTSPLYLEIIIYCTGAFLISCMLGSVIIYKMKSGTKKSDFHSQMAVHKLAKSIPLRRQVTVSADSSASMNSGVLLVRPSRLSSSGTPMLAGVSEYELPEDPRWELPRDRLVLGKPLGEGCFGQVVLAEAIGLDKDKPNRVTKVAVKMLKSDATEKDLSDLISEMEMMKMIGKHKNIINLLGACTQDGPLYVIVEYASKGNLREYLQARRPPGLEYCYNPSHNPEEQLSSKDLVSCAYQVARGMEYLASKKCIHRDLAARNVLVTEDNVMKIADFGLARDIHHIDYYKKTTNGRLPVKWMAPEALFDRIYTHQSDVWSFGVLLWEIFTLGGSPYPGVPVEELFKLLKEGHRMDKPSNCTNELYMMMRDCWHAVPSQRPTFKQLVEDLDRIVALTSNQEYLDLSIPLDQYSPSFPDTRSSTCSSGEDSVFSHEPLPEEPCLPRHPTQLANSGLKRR

[3] = system: 1483 human head and neck squamous cell carcinoma (HNSCC) xenograft; experiment: HN1483 tumor model: paw tumor volume of treated mice; type: in vivo, nude mice; conditions: for Tumor vol. Average: group average; for Paw volume, paw / Tumor vol.: individual mice
[4] = SU-5416/50 mgkd, Day 17 Mar. 16, 2001
[5] = SU-5416/50 mgkd, Day 21 Mar. 20, 2001
[6] = SU-5416/50 mgkd, Day 24 Mar. 23, 2001
[7] = SU-5416/50 mgkd, Day 31 Apr. 2, 2001
[8] = SU-5416/50 mgkd, Day 31 Mar. 30, 2001

SMILES: CCc1ccc(C=C2C(=O)Nc3ccccc32)s1 [SU5451, 3-[(2-Ethylthien-5-yl)methylene]-2-indolinone]
IC50 [1]: 30 µM
IC50 [2]: 16 µM

SMILES: Cc1cc(C)c(C=C2C(=O)Nc3ccccc32)[nH]1 [SU5416, 3-[(2,4-Dimethylpyrrol-5-yl)methylene]-2-indolinone]
Tumor vol. Average ([3]; SU5416 25 mg/kg/day s.c. group, Day 7 Mar. 3, 2001 (before start of dosing)): 0.14
Paw volume, paw ([3]; SU5416 25 mg/kg/day s.c. group, Day 7 Mar. 3, 2001 (before start of dosing), 25 mg/kg/day): 0.26 (3×) and 0.28 and 0.27 (2×) and 0.24 and 0.23
Tumor vol. ([3]; SU5416 25 mg/kg/day s.c. group, Day 7 Mar. 3, 2001 (before start of dosing), paw minus 0.10, 25 mg/kg/day): 0.16 (2×) and 0.17 (3×) and 0.18 and 0.14 and 0.13
Tumor vol. Average ([3]; SU5416 25 mg/kg/day s.c., Day 14 Mar. 13, 2001): 0.18
Paw volume, paw ([3]; SU5416 25 mg/kg/day s.c., Day 14 Mar. 13, 2001, 25 mg/kg/day): 0.29 (3×) and 0.28 (2×) and 0.27 and 0.26 and 0.24
Tumor vol. ([3]; SU5416 25 mg/kg/day s.c., Day 14 Mar. 13, 2001, paw minus BKG. 0.10, 25 mg/kg/day): 0.19 (3×) and 0.18 and 0.17 and 0.16 (2×) and 0.14
Tumor vol. Average ([3]; SU5416 25 mg/kg/day s.c., Day 17 Mar. 16, 2001): 0.21
Paw volume, paw ([3]; SU5416 25 mg/kg/day s.c., Day 17 Mar. 16, 2001, 25 mg/kg/day): 0.37 (2×) and 0.33 and 0.29 and 0.28 (2×) and 0.36 and 0.23
Tumor vol. ([3]; SU5416 25 mg/kg/day s.c., Day 17 Mar. 16, 2001, paw minus BKG. 0.10, 25 mg/kg/day): 0.27 (2×) and 0.23 and 0.19 and 0.18 (2×) and 0.26 and 0.13
Tumor vol. Average ([3]; SU5416 25 mg/kg/day s.c., Day 21 Mar. 20, 2001): 0.34
Paw volume, paw ([3]; SU5416 25 mg/kg/day s.c., Day 21 Mar. 20, 2001, 25 mg/kg/day): 0.55 and 0.49 and 0.37 and 0.34 and 0.4 and 0.58 and 0.56 and 0.24
Tumor vol. ([3]; SU5416 25 mg/kg/day s.c., Day 21 Mar. 20, 2001, paw minus BKG. 0.10, 25 mg/kg/day): 0.45 and 0.39 and 0.27 and 0.24 and 0.30 and 0.48 and 0.46 and 0.14
Tumor vol. Average ([3]; SU5416 25 mg/kg/day s.c., Day 24 Mar. 23, 2001): 0.39
Paw volume, paw ([3]; SU5416 25 mg/kg/day s.c., Day 24 Mar. 23, 2001, 25 mg/kg/day): 0.59 and 0.8 and 0.37 and 0.4 and 0.49 and 0.65 and 0.61 and 0.22
Tumor vol. ([3]; SU5416 25 mg/kg/day s.c., Day 24 Mar. 23, 2001, paw minus BKG. 0.10, 25 mg/kg/day): 0.49 and 0.50 and 0.27 and 0.30 (2×) and 0.55 and 0.51 and 0.12
Tumor vol. Average ([3]; SU5416 25 mg/kg/day s.c., Day 31 Apr. 2, 2001): 0.87
Paw volume, paw ([3]; SU5416 25 mg/kg/day s.c., Day 31 Apr. 2, 2001, 25 mg/kg/day): 0.82 and 0.79 and 0.57 and 0.6 and 0.66 and 0.98 and 0.75 and 0.21
Tumor vol. ([3]; SU5416 25 mg/kg/day s.c., Day 31 Apr. 2, 2001, paw minus BKG. 0.10, 25 mg/kg/day): 0.72 and 0.69 and 0.47 and 0.50 and 0.56 and 0.68 and 0.65 and 0.11
Tumor vol. Average ([3]; SU5416 25 mg/kg/day s.c., Day 31 Mar. 30, 2001): 0.56
Paw volume, paw ([3]; SU5416 25 mg/kg/day s.c., Day 31 Mar. 30, 2001, 25 mg/kg/day): 0.84 and 0.5 and 0.71 and 0.23 and 0.73 and 0.81 and 0.54 and 0.56
Tumor vol. ([3]; SU5416 25 mg/kg/day s.c., Day 31 Mar. 30, 2001, paw minus BKG. 0.10, 25 mg/kg/day): 0.74 and 0.70 and 0.61 and 0.13 and 0.63 and 0.71 and 0.44 and 0.46
Tumor vol. Average ([3]; SU5416 25 mg/kg/day s.c., Start dosing Day 10 Mar. 9, 2001): 0.16
Paw volume, paw ([3]; SU5416 25 mg/kg/day s.c., Start dosing Day 10 Mar. 9, 2001, 25 mg/kg/day): 0.3 and 0.25 and 0.23 and 0.26 and 0.27 and 0.29 and 0.24 (2×)
Tumor vol. ([3]; SU5416 25 mg/kg/day s.c., Start dosing Day 10 Mar. 9, 2001, paw minus BKG. 0.10, 25 mg/kg/day): 0.20 and 0.15 and 0.13 and 0.10 and 0.17 and 0.19 and 0.14 (2×)
Paw volume, paw ([3]; SU-5416/50 mgkd, Day 14 Mar. 13, 2001): 0.29 and 0.22 and 0.32 and 0.27 (2×) and 0.24 and 0.26 and 0.21
Tumor vol. Average [3, 4]: 0.19
Paw volume, paw [3, 4]: 0.24 and 0.27 and 0.2 and 0.3 and 0.32 and 0.22 and 0.39 and 0.34
Tumor vol. ([3]; SU-5416/50 mgkd, Day 17 Mar. 16, 2001, paw minus BKG. 0.10): 0.14 and 0.17 and 0.10 and 0.20 and 0.22 and 0.12 and 0.29 and 0.24
Tumor vol. Average [3, 5]: 0.27
Paw volume, paw [3, 5]: 0.27 and 0.36 and 0.19 and 0.31 and 0.44 and 0.22 and 0.63 and 0.48
Tumor vol. ([3]; SU-5416/50 mgkd, Day 21 Mar. 20, 2001, paw minus BKG. 0.10): 0.17 and 0.28 and 0.09 and 0.21 and 0.34 and 0.12 and 0.53 and 0.38
Tumor vol. Average [3, 6]: 0.30
Paw volume, paw [3, 6]: 0.25 and 0.46 and 0.19 and 0.28
Tumor vol. ([3]; SU-5416/50 mgkd, Day 24 Mar. 23, 2001, paw minus BKG. 0.10): 0.15 and 0.36 and 0.09 and 0.18 and 0.42 and 0.08 and 0.64
Tumor vol. Average [3, 7]: 0.34
Paw volume, paw [3, 7]: 0.18 and 0.53 and 0.15 and 0.25
Tumor vol. ([3]; SU-5416/50 mgkd, Day 31 Apr. 2, 2001, paw minus BKG. 0.10): 0.08 (2×) and 0.43 and 0.05 and 0.15 and 0.59
Tumor vol. Average [3, 8]: 0.36
Paw volume, paw [3, 8]: 0.24 and 0.6 and 0.18 and 0.21
Tumor vol. ([3]; SU-5416/50 mgkd, Day 31 Mar. 30, 2001, paw minus BKG. 0.10): 0.14 (2×) and 0.50 and 0.08 and 0.11 and 0.73 and 0.62
body wt, individual mouse (group 2, SU5416 25 mg/kg/day s.c., Day 0 (day of injection), 25 mg/kg/day): 31.93
body wt, individual mouse (group 2, SU5416 25 mg/kg/day s.c., Day 7, 25 mg/kg/day): 32.41 and 25.96
body wt, individual mouse (group 2, SU5416 25 mg/kg/day s.c., Day 10, 25 mg/kg/day): 32.36 and 25.96 and 31
body wt, individual mouse (group 2, SU5416 25 mg/kg/day s.c., Day 14, 25 mg/kg/day): 28.02 and 32.11 and 23.91 and 21.18
body wt, individual mouse (group 2, SU5416 25 mg/kg/day s.c., Day 17, 25 mg/kg/day): 28.98 and 18.97
body wt, individual mouse (group 2, SU5416 25 mg/kg/day s.c., Day 21, 25 mg/kg/day): 22.29 and 18.32
body wt, individual mouse (group 2, SU5416 25 mg/kg/day s.c., Day 24, 25 mg/kg/day): 24.83 and 21.3 and 22.29 and 22.93 and 18.15 and 29.02
body wt, individual mouse (group 2, SU5416 25 mg/kg/day s.c., Day 31, 25 mg/kg/day): 23.86 and 17.88 and 20.51
body wt, individual mouse (group 2, SU5416 25 mg/kg/day s.c., Day 35, 25 mg/kg/day): 21.74 and 22.95 and 18.42
body wt, individual mouse (group 5, SU-5416 50 mpkd, Day 0 (day of injection)): 26.04
body wt, individual mouse (group 5, SU-5416 50 mpkd, Day 7): 29.04
body wt, individual mouse (group 5, SU-5416 50 mpkd, Day 21): 25.96 and 24.96
body wt, individual mouse (group 5, SU-5416 50 mpkd, Day 24): 22.85 and 24.01 and 24.79
body wt, individual mouse (group 5, SU-5416 50 mpkd, Day 31): 26.03

IC50 [1]: 40 µM
IC50 [2]: 25 µM
SMILES: CCOC(=O)CCc1c(C=C2C(=O)Nc3ccccc32)[nH]c(C(=O)OCC)c1CC(=O)OCC [SU5465, 3-[(5-Ethoxycarbonyl-3-ethoxycarbonylethyl-4-ethoxylcarbonylmethylpyrrol-2-yl)methylene]-2-indolinone]

IC50 [1]: 5.2 µM
SMILES: Cc1c[nH]c(C=C2C(=O)Nc3ccccc32)c1C [SU5406, 3-[(3,4-Dimethylpyrrol-2-yl)methylene]-2-indolinone]
